For assay [1], the system named is dengue virus TSV01. The assay can be described thus: Plaque assay of supernatants of HepG2 cells infected with dengue virus TSV01 in the presence of ubiquitin-proteasome inhibitors. The settings on record: for virus replication in the HepG2 cell line by plaque assay of the cell culture supernatants: FIG. 4A, two days after infection, MG-132 0.4 and 0.6 μM, ALLN 10 and 15 μM, MOI 10, vs DMSO alone; for virus replication in the HepG2 cell line by plaque assay of the cell culture supernatants / virus replication by plaque assay: 2 hrs prior to infection; for virus replication by plaque assay: FIG. 7G, HepG2, MG-132 0.04 and 0.4 μM, ALLN 1 and 10 μM, MOI 10, 48 hrs. The class given is cell-based, dengue virus serotype 2. Here is the method:
The HepG2 cell line is infected with TSV01, a serotype 2 dengue virus (Genbank AY037116; McBride and Vasudevan, 1995), and cells harvested over a succession of time points up to three days post-infection.
In a second experiment we applied specific compounds to our in vitro experiment (described above) that are known to alter the function of these (and other) genes in this pathway (Table E1 below).
HepG2 cells (ATCC) are treated with proteasome inhibitors prior to infection with dengue virus. […]
HepG2 cells are cultured ON in 24 well plates. […]
Cell culture supernatants are collected and assayed for dengue virus by plaque assay. Plaque forming units per ml are expressed as the mean percentage of the highest number of pfu/ml (DMSO alone)±SEM, (n=3). Cytotoxicity is measured using FDA and results are expressed as the mean percentage compared to DMSO alone±SEM, (n=3). “*” indicates p<0.05 and “**”indicates p<0.005 by students t-test comparing each treatment to DMSO alone.
The type 2 dengue virus strain TSV01 is obtained from an outbreak in Townsville, Australia (McBride and Vasudevan 1995) (GenBank, accession number AY037116). TSV01 is cultured in the C6/36 cell line (from the Aedes albopictus mosquito) with virus added to cells in a T175 flask (MOI 0.01) and incubated for 1 hr at 28° C. with brief mixing every 20 min. Media is removed and cells washed in fresh media then media with 5% FBS added and cells incubated for 5 days at 28° C. Cell culture supernatants are removed and centrifuged at 1000×g for 10 min at 4° C. then pooled and stored in aliquots at −80° C. Heat-inactivated virus is prepared by incubating virus samples at 55° C. for 1 hr, with heat-inactivation confirmed by plaque assay.
For plaque assay, BHK-21 cells are cultured ON in 24 well plates before media is removed and serial dilutions (10-fold) of cell culture supernatants added to individual wells. Plates are incubated for 1 hr before media is aspirated and replaced with 0.5 ml of 0.8% methyl-cellulose medium (with 2% FBS). Plates are then incubated for 5 days before the media is removed and cells fixed in 4% formaldehyde for 20 min then rinsed in water and stained with crystal violent for 20 min and rinsed again. Plaques are counted manually and concentrations of plaque forming units per ml (pfu/ml) of the sample cell culture supernatant calculated.

The target in assay [2] is proteasome. The settings on record: cited from earlier work.
The subject of assay [3] is NF-kB activation. The note with it: cited from earlier work.
In assay [4] the test system is 26S complex. The settings on record: cited from earlier work.
Assay [5] has as its target calpain I, calpain II, cathepsin B, and cathepsin L. The settings on record: one range for the four enzymes; cited from earlier work.
The subject of assay [6] is 20S proteasome. The settings on record: cited from earlier work.
Assay [7] addresses 26S proteasome. The note with it: cited from earlier work.
In assay [8] the target is chymotrypsin-like activity (Homo sapiens, UniProt P28074). The note with it: cited from earlier work.
Assay [9] deals with T1, calpain I (Homo sapiens, UniProt P07384).
T1 sequence (P07384 1-714): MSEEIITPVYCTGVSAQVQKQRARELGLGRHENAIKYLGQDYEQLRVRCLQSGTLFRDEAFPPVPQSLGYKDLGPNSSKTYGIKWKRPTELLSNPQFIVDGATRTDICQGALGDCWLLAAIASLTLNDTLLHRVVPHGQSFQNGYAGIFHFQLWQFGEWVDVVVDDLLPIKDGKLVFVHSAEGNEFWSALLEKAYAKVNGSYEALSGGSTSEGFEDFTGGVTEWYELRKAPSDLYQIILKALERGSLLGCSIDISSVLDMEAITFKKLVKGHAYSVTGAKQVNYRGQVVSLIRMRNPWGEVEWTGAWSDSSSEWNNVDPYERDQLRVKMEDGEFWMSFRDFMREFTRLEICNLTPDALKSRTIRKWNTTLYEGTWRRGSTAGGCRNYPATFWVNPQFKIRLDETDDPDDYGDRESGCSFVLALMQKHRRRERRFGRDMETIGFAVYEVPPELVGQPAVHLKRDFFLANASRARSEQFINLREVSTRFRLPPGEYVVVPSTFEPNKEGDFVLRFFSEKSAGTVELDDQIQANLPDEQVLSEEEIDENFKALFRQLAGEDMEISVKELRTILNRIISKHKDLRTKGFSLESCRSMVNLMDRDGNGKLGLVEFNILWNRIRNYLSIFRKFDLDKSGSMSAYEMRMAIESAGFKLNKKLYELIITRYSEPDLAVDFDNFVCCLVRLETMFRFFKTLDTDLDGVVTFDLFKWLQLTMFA
T1 sequence (P04632 1-268 partner): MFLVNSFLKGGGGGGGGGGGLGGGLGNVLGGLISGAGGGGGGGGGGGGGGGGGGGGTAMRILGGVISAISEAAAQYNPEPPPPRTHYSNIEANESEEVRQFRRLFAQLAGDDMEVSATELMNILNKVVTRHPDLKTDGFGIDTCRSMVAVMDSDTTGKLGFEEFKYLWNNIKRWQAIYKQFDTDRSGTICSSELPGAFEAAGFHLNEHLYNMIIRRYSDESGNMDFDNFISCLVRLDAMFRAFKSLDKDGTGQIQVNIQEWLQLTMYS
The note with it: cited from earlier work.

The target of assay [10] is T2, calpain II (Homo sapiens, UniProt P17655).
T2 sequence (P17655 1-700): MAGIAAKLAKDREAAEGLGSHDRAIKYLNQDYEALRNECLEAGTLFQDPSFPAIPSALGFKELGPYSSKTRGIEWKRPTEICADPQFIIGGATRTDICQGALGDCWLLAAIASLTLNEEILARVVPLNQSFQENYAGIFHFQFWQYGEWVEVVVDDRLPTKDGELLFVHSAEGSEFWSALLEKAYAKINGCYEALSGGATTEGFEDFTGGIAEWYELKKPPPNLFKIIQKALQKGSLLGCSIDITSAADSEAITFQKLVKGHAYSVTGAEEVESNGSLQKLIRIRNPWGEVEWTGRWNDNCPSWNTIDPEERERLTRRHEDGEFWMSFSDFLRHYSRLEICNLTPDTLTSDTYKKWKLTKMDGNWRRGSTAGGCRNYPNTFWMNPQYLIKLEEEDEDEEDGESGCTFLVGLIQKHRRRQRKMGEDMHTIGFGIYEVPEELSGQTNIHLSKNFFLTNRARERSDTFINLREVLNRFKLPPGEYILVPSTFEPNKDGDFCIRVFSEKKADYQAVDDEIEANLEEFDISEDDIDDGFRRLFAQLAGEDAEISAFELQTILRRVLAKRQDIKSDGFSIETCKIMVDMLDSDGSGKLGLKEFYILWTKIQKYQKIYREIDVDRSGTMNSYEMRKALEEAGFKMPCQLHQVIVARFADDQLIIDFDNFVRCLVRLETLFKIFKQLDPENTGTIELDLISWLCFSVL
T2 sequence (P04632 1-268 partner): T1 sequence (P04632 1-268 partner)
The settings on record: cited from earlier work.

The target in assay [11] is cathepsin L (Homo sapiens, UniProt P07711). The settings on record: cited from earlier work.
Sequence of cathepsin L (P07711 114-333, species assumed): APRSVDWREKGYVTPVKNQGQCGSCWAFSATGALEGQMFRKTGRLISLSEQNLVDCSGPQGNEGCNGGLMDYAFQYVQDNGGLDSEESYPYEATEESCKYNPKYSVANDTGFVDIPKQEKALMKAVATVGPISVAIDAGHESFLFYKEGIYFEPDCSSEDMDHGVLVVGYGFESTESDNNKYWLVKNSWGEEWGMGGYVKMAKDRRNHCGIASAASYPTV

Where a SMILES comes first, the peptide text is derived from it. [ ]: non-standard residue; d: D form. The star is where a group is joined. Nle = CCCC[C@H](N)C(=O)O; Nva = CCC[C@H](N)C(=O)O; Cbz = O=C(OCc1ccccc1)*

Usually Ki stands for a dissociation constant, usually derived from enzyme kinetics or from competition with a known ligand. One may read the IC50 as the concentration needed to halve the response being measured. Turning to `CC(C)C[C@@H](C=O)NC(=O)[C@H](CC(C)C)NC(=O)[C@H](CC(C)C)NC(=O)OCc1ccccc1` [MG-132, Carbobenzoxy-L-leucyl-L-leucyl-L-leucinal] (Cbz-Leu-Leu-Leu-aldehyde), in assay [1], the “virus replication in the HepG2 cell line by plaque assay of the cell culture supernatants” value is on record as “significantly reduced”; the “virus replication by plaque assay” value was “significantly and consistently reduced”. Also, the inhibition constant (Ki) in assay [2] is 0.004 µM. Further, the IC50 in [3] was 3 µM. For the same molecule, the “effective concentrations, reduction of degradation of ubiquitin-conjugated proteins” value in [4] is “micromolar concentrations. Sequence: Z-Leu-”.
For `CSCC[C@@H](C=O)NC(=O)[C@H](CC(C)C)NC(=O)[C@H](CC(C)C)NC(C)=O` [Calpain Inhibitor II, Ac-Leu-Leu-Methional] (Ac-Leu-Leu-Met-aldehyde), the “inhibition of proteasome activity” value in assay [2] was “does not”. Besides, the Ki in assay [5] was 0.12 to 0.6 µM.
As to `CC(C)[C@H](O)[C@@]12NC(=O)[C@H](C)[C@@H]1OC2=O` [clasto-Lactacystin β-Lactone], the “sensitivity relative to its precursor, lactacystin” value in [6] (in vitro) is listed as ~10-fold more sensitive than its precursor,.
As to `CCC[C@@H](C=O)NC(=O)[C@H](CC(C)C)NC(=O)[C@H](CC(C)C)NC(=O)OCc1ccccc1` [MG-115, Z-Leu-Leu-Norvalinal] (Cbz-Leu-Leu-[Nva]-aldehyde), the results for the Ki in assay [6] and in assay [7] were 0.021 µM and 0.035 µM, respectively.
`CC(C)C[C@H](NC(=O)OCc1ccccc1)C(=O)N[C@@H](CC(C)C)C(=O)N[C@H](C=O)Cc1ccccc1` [Proteasome Inhibitor II, Z-Leu-Leu-Phenylalaninal] (Cbz-Leu-Leu-Phe-aldehyde): the Ki in assay [8] is 0.46 µM.
For the molecule `CCCC[C@@H](C=O)NC(=O)[C@H](CC(C)C)NC(=O)[C@H](CC(C)C)NC(C)=O` [ALLN, N-Acetyl-Leu-Leu-Nle-CHO] (Ac-Leu-Leu-[Nle]-aldehyde), the “virus replication in the HepG2 cell line by plaque assay of the cell culture supernatants” value in assay [1] is “significantly reduced”. Moreover, the “virus replication by plaque assay” value in assay [1] is “significantly and consistently reduced”. For the same molecule, the Ki in [2] was 6 µM; in assay [9] it was 0.19 µM; in assay [10] it was 0.22 µM; in assay [11], 0.0005 µM; in [5] it was 0.15 to 0.5 µM.
In the case of `C[C@@H]1C[C@H]2[C@@H]3CCC4=CC(=O)C=C[C@]4(C)[C@@]3(F)[C@@H](O)C[C@]2(C)[C@@]1(O)C(=O)CO` [Dexamethasone, dexamethasone], the “effect on viral replication” value in [1] (HepG2 infection model, data not shown) is reported as “no effect”.
